The values below are quoted from earlier work in patent US12396965B2, “Putrescine topical barrier formulation” (VIVIER CANADA INC., priority 2017, dated 2025).

The structures appear in SMILES notation.

Data set [1] concerns the target fibroblast tissue transglutaminase (Homo sapiens, UniProt P21980). To be noted: in vitro and in vivo; topical; compared to controls.
Data set [2] concerns epidermis of eroded skin. To be noted: animals and human, topical.

Chain of fibroblast tissue transglutaminase (P21980 whole entry): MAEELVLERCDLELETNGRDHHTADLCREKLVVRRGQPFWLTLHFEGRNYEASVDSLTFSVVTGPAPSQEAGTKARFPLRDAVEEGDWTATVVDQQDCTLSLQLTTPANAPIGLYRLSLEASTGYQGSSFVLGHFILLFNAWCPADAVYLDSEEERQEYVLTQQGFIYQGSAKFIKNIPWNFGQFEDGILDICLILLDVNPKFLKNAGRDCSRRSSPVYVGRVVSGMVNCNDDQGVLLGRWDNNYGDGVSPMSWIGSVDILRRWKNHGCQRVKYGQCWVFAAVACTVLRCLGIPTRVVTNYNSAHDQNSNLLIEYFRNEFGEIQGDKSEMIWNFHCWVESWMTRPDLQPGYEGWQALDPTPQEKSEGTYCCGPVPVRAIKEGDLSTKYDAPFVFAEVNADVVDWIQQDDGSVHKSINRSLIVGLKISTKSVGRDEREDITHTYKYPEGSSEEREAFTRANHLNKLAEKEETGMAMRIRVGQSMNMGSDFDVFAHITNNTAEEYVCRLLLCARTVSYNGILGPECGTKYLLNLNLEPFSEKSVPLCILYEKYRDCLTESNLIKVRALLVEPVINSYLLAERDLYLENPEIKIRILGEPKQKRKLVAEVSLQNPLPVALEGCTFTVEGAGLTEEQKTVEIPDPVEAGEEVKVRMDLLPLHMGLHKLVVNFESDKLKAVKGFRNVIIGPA

With `NCCCCN` [Putrescine, 1,4-diaminobutane], the collagen cross-linking result in data set [1] was “reduce collagen cross-linking”. Besides, the “barrier function of the epidermis and thickness of the stratum lucidum / inner strata of human epidermis” value in data set [2] is “increasing its barrier function as well as the thickness of the stratum lucidum”.
